Source: PubChem BioAssay (NCI)
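The compound was tested at five concentrations on cells cultured in 96-well plates, with a 48-hour exposure period. At the GI50, growth is halved. Definition used: TGI = concentration required for complete inhibition of growth.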

Columns and labels:
Experiment in all cases: DTP human tumour cell line panel, 48 h
[1] = system: ACHN renal
[2] = system: TK-10 renal
[3] = system: SF-539 CNS
[4] = system: OVCAR-8 ovarian
[5] = system: HOP-92 NSCLC
[6] = system: SK-MEL-5 melanoma
[7] = system: A549 NSCLC
[8] = system: RXF 393 renal
[9] = system: PC-3 prostate
[10] = system: NCI-H522 lung

Structure (SMILES)	TGI [1]	TGI [2]	TGI [3]	TGI [4]	TGI [5]	TGI [6]	TGI [7]	GI50 [8]	TGI [8]	GI50 [9]	TGI [9]	GI50 [1]	GI50 [2]	GI50 [3]	GI50 [4]	GI50 [5]	GI50 [6]	GI50 [7]	TGI [10]	GI50 [10]
CC[C@@H]1NC(C(=O)OC)Cc2c1[nH]c1ccccc21 (stereo not given in full)	> 100 µM	> 100 µM	> 100 µM	> 100 µM	> 100 µM	> 100 µM	> 100 µM													
CCCCCCCCc1cc2c(O)c(c1)Cc1cc(CCCCCCCC)cc(c1O)Cc1cc(CCCCCCCC)cc(c1O)Cc1cc(CCCCCCCC)cc(c1O)Cc1cc(CCCCCCCC)cc(c1O)Cc1cc(CCCCCCCC)cc(c1O)C2	> 100 µM	> 100 µM	> 100 µM	> 100 µM	> 100 µM		> 100 µM													
NC(N)=Nc1nc2ccccc2o1	> 100 µM	> 100 µM	> 100 µM	> 100 µM	> 100 µM	> 100 µM	> 100 µM	> 100 µM	> 100 µM	> 100 µM	> 100 µM	> 100 µM	> 100 µM	> 100 µM	49.2 µM	> 100 µM	> 100 µM	> 100 µM		
O/N=C1\CCCCC1C(NO)c1ccccc1 (stereo not given)	> 100 µM	> 100 µM	> 100 µM	> 100 µM	> 100 µM		> 100 µM		> 100 µM										> 100 µM	
CCOC(=O)C(Br)=C1OC(=O)c2ccccc2-c2ccccc21 (mixture of isomers)	29 µM	49 µM	46.8 µM	75.8 µM	29.5 µM	35.8 µM	> 100 µM												32 µM	
O=C(c1ccc([N+](=O)[O-])cc1[N+](=O)[O-])N(/N=C/C=C/c1ccccc1)c1nnc(-c2ccccc2)c(-c2ccccc2)n1	78.1 µM	78 µM	30.1 µM	67.8 µM	51.2 µM	> 100 µM	> 100 µM		71.1 µM										96.6 µM	
CCSc1nc(N=Cc2ccccc2O)c2cn[nH]c2n1	> 100 µM	36.6 µM	> 100 µM	> 100 µM		65.9 µM	> 100 µM	12.9 µM	44.6 µM	28 µM	72.7 µM	29.8 µM	9.67 µM	34.2 µM	48.8 µM		23.8 µM	46.2 µM	> 100 µM	48.9 µM
COc1ccc(Cl)cc1NC(=O)c1ccc(NC2=C(Cl)C(=O)N(Cc3ccccc3)C2=O)cc1	> 100 µM	> 100 µM	> 100 µM	> 100 µM		> 100 µM	> 100 µM	21.3 µM	79.3 µM	52.6 µM	> 100 µM	94.2 µM	> 100 µM	> 100 µM	19.4 µM		47.4 µM	> 100 µM	> 100 µM	17.5 µM
COc1cc(C[P+](c2ccccc2)(c2ccccc2)c2ccccc2)cc(OC)c1OC	> 100 µM	> 100 µM	> 100 µM	> 100 µM	> 100 µM	> 100 µM	> 100 µM		> 100 µM										> 100 µM	
NCCCn1c2c(c3ccc([N+](=O)[O-])cc3c1=O)C(=O)c1cc(I)ccc1-2	1.29 µM		1.21 µM	0.234 µM	2.25 µM	1.45 µM	1.74 µM	0.503 µM	2.28 µM	0.563 µM	2.07 µM	< 0.0179 µM		0.0435 µM	0.0268 µM	0.65 µM	0.172 µM	0.0133 µM		
O=S(=O)(OI(OI(OS(=O)(=O)C(F)(F)F)c1ccccc1)c1ccccc1)C(F)(F)F	> 100 µM	> 100 µM	> 100 µM	> 100 µM		85.4 µM	> 100 µM		73.7 µM										> 100 µM	
CCCN(CCC)c1c([N+](=O)[O-])cc(C(=O)N(CC)CC)cc1[N+](=O)[O-]	> 100 µM	76.8 µM	58.3 µM	69 µM		26.8 µM	38.1 µM		63 µM										28.6 µM	
CCCCCCCC(=O)OCC1OC(n2cc(F)c(=O)[nH]c2=O)C(N)C(OC(=O)CCCCCCC)C1O (stereo not given)	37.9 µM	56.9 µM	36.1 µM	31.6 µM	34.3 µM	22.3 µM	32.3 µM		31.9 µM										28.9 µM	
O=c1[nH]c(=O)n(C2CC(O)C(CO)O2)cc1OS(=O)(=O)C(F)(F)F (stereo not given)	> 100 µM	> 100 µM	> 100 µM	> 100 µM	> 100 µM	> 100 µM	> 100 µM		> 100 µM										> 100 µM	
CC(C)C1CN(C(=O)OCc2ccccc2)C2N1C(=O)C2(C)OCc1ccccc1 (stereo not given)	> 100 µM	> 100 µM	> 100 µM	> 100 µM		29.5 µM	> 100 µM		> 100 µM											
CC[C@]1(O)C[C@H]2CN(CCc3c([nH]c4ccccc34)C(C(=O)OC)(c3cc4c(cc3OC)N(C)[C@H]3[C@@](O)(C(=O)OC)[C@H](OC(C)=O)[C@]5(CC)[C@@H]6C[C@@H]6CN6CC[C@]43[C@@H]65)C2)C1 (stereo not given in full)	> 14.3 µM	5.62 µM	3.04 µM	0.168 µM	0.827 µM	0.0313 µM	> 14.3 µM			0.00296 µM	> 11.8 µM	0.012 µM	0.0404 µM	0.0226 µM	0.00688 µM	0.00682 µM	0.00184 µM	0.00372 µM	0.00528 µM	< 0.00143 µM
O=C1C=C(c2c(O)ccc3ccccc23)c2cc(O)ccc2C1=O	31.5 µM	35.4 µM	39.3 µM	28.9 µM	31.9 µM	28.6 µM	36.7 µM		29.1 µM											
CSC[C@H](NC(=O)COc1cccc2cnccc12)C(=O)NC(Cc1ccccc1)C(O)C(=O)N1CSC[C@H]1C(=O)NC(C)(C)C (stereo not given in full)	84.9 µM	> 100 µM	31.4 µM	> 100 µM			> 100 µM		99.8 µM		> 100 µM								> 100 µM	
CCOc1ccc(NC(=O)CC2SC(=Nc3ccc(C)cc3C)NC2=O)cc1 (stereo not given)	> 100 µM	> 100 µM	63.7 µM	> 100 µM	> 100 µM	> 100 µM	> 100 µM		> 100 µM										> 100 µM	
Oc1oc(C(=C2N=c3ccccc3=N2)c2ccc(Cl)cc2)c(O)c1-c1ccc(Cl)cc1	14.7 µM	11.5 µM	9.91 µM	> 100 µM	4.47 µM		> 100 µM		6.8 µM										6.18 µM	
O=C1C/C(Br)=C\c2ccccc2-c2ccccc21	4.5 µM	14.5 µM	4.85 µM	5.41 µM	5.27 µM	16 µM	21.8 µM		3.04 µM										1.59 µM	

Structure (SMILES)	TGI [1]	TGI [2]	TGI [3]	TGI [4]	TGI [5]	TGI [6]	TGI [7]	GI50 [8]	TGI [8]	GI50 [9]	TGI [9]	GI50 [1]	GI50 [2]	GI50 [3]	GI50 [4]	GI50 [5]	GI50 [6]	GI50 [7]	TGI [10]	GI50 [10]
c1ccc2c(c1)CCc1c(-c3ccncc3)n[nH]c1-2	> 100 µM	> 100 µM	> 100 µM	88.6 µM		32.1 µM	> 100 µM													
COC(=N)c1csc(C2OC(CO)C(O)C2O)n1 (stereo not given)	> 100 µM	> 100 µM	> 100 µM	> 100 µM	> 100 µM		> 100 µM												> 100 µM	
FC(F)(F)c1ccc2nc(NCc3ccccc3)c(-c3ccccc3)nc2c1	> 100 µM	> 100 µM	> 100 µM	> 100 µM	17.9 µM		> 100 µM		71.5 µM											
Cc1cc(C)nc(NS(=O)(=O)c2ccc(Nc3c4ccccc4nc4c(C(=O)N5CCN(CCO)CC5)cccc34)cc2)n1	> 100 µM	> 100 µM	> 100 µM	> 100 µM	> 100 µM	> 100 µM	> 100 µM		> 100 µM											
CCC(C)(C)n1c(C)nc2c1C(=O)c1ccccc1C2=O	> 100 µM	> 100 µM	> 100 µM	> 100 µM		33.7 µM	> 100 µM		59.4 µM										87.5 µM	
Cc1cc2c(cc1C)[n+](=O)cc(C(=O)C/C(=N/NC(=S)NN)C(=O)Nc1cccc(C(F)(F)F)c1)n2[O-]	> 100 µM	> 100 µM	> 100 µM	> 100 µM	> 100 µM	> 100 µM	> 100 µM												> 100 µM	
COc1cc(OC)c(OC)cc1/C=N/NC(=O)N/N=C/c1cc(OC)c(OC)cc1OC	> 100 µM	> 100 µM	> 100 µM	> 100 µM	> 100 µM	> 100 µM	> 100 µM												86.5 µM	
CNc1nc(N)nc(Nc2ccc(I)cc2)c1N=O	> 100 µM	> 100 µM	> 100 µM	> 100 µM		> 100 µM	> 100 µM		> 100 µM		> 100 µM								> 100 µM	
CN(C)CCNC(=O)Cc1ccccc1Nc1c(Cl)cccc1Cl	33.3 µM	27.2 µM	31.5 µM	37.1 µM		30.2 µM	36 µM		31.9 µM											
CC1=C(C(=O)Nc2ccccc2)C(c2ccc(Cl)c(Cl)c2)C(C(=O)Nc2ccccc2)=C(C)N1	24.9 µM	75.2 µM	32.3 µM	27.9 µM		28.7 µM	25.3 µM		21.7 µM										25.8 µM	
CCN(CCNS(C)(=O)=O)c1ccc(N)c(C)c1	4.9 µM	7.73 µM	21.6 µM	15.2 µM	16.3 µM	24.6 µM	51 µM	2.71 µM	8.85 µM			2.09 µM	3.44 µM	9.08 µM	3.94 µM	4.13 µM	11.9 µM	25 µM	3.46 µM	2 µM
Cc1nc2c(N)ncnc2o1	> 100 µM	> 100 µM	> 100 µM	> 100 µM	> 100 µM	> 100 µM	> 100 µM		> 100 µM										> 100 µM	
CC(=O)N/C(=C\c1ccccc1/C=C(\NC(C)=O)c1nc2cc(C)c(C)cc2[nH]1)c1nc2cc(C)c(C)cc2[nH]1	28.4 µM	> 100 µM	44.3 µM	40.9 µM	62.1 µM	43 µM	> 100 µM												24 µM	
CO[C@@H]1CC[C@]2(C)OC[C@H](C)[C@@H]3C[C@@H](C)[C@@H](OC(C)=O)[C@@H]4[C@H]3[C@@H]2O[C@H]4C[C@@]1(C)O	> 100 µM	> 100 µM	> 100 µM	> 100 µM	> 100 µM	> 100 µM	> 100 µM	> 100 µM	> 100 µM			> 100 µM	> 100 µM	> 100 µM	> 100 µM	> 100 µM	> 100 µM	> 100 µM	> 100 µM	> 100 µM
O=C1c2cccc3cccc(c23)C(=O)N1CCN(CCO)CCO	67.5 µM	62.3 µM	86.5 µM	35 µM	83 µM	33.6 µM	70.7 µM		92.2 µM											
C/C(=N\NC(N)=O)c1sc(-c2nc(C)c(/C(C)=N/NC(N)=O)s2)nc1C	> 100 µM	> 100 µM	> 100 µM	> 100 µM	> 100 µM	> 100 µM	> 100 µM		> 100 µM										> 100 µM	
CCOC(=O)Cc1csc(Nc2ccccc2[N+](=O)[O-])n1	> 100 µM	> 100 µM	> 100 µM	> 100 µM	> 100 µM	> 100 µM	> 100 µM		> 100 µM										> 100 µM	
CN1Nc2ccccc2CC1=O	> 100 µM	> 100 µM	> 100 µM	> 100 µM	> 100 µM	> 100 µM	> 100 µM													
CCCCCCCCCCCC[N+]12CC[N+](CCN)(CC1)CC2	> 100 µM	39.7 µM	> 100 µM	> 100 µM	> 100 µM	> 100 µM	> 100 µM		18.1 µM										> 100 µM	
CNCCCNc1ccnc2cc(Cl)ccc12	61.3 µM	54.4 µM	33.1 µM	> 100 µM	39.1 µM	31.6 µM		14.5 µM	65.4 µM	17.9 µM	57 µM	19 µM	18 µM	17 µM	28.3 µM	9.51 µM	16.4 µM			
